Data as given in the kinase profiling compilation of Christmann-Franck et al. (2016).
Where “and” joins values, the source holds several entries; their conditions need not be identical. Equal values may be shown once.

Columns and labels:
Assay in all cases: radiometric filter-binding kinase assay, Kinase HotSpot
Settings in all cases: compound 0.5 µM; ATP 10 µM
[1] = molecular target: ADRBK1 (human) (UniProt P25098)
[2] = molecular target: AKT1 (human) (UniProt P31749)
[3] = molecular target: BTK (human) (UniProt Q06187)
[4] = molecular target: CAMKK2 (human) (UniProt Q96RR4)
[5] = molecular target: CDK1 CCNB1 (human) (UniProt P06493+P14635)
[6] = molecular target: CDK2 CCNA2 (human) (UniProt P24941+P20248)
[7] = molecular target: CDK4 CCND1 (human) (UniProt P24385+P11802)
[8] = molecular target: CDK6 CCND1 (human) (UniProt Q00534+P24385)
[9] = molecular target: CDK9 CCNK (human) (UniProt O75909+P50750)
[10] = molecular target: CSNK1E (human) (UniProt P49674)
[11] = molecular target: EPHA2 (human) (UniProt P29317)
[12] = molecular target: EPHA4 (human) (UniProt P54764)
[13] = molecular target: EPHA8 (human) (UniProt P29322)
[14] = molecular target: FES (human) (UniProt P07332)
[15] = molecular target: FRK (human) (UniProt P42685)
[16] = molecular target: GSG2 (human) (UniProt Q8TF76)
[17] = molecular target: HCK (human) (UniProt P08631)
[18] = molecular target: IRAK4 (human) (UniProt Q9NWZ3)
[19] = molecular target: LRRK2 (human) (UniProt Q5S007)
[20] = molecular target: LYN (human) (UniProt P07948)
[21] = molecular target: MAP4K2 (human) (UniProt Q12851)
[22] = molecular target: MLTK (human) (UniProt Q9NYL2)
[23] = molecular target: MST4 (human) (UniProt Q9P289)
[24] = molecular target: NTRK3 (human) (UniProt Q16288)
[25] = molecular target: PAK4 (human) (UniProt O96013)
[26] = molecular target: PIM1 (human) (UniProt P11309)
[27] = molecular target: PRKCG (human) (UniProt P05129)
[28] = molecular target: PRKCI (human) (UniProt P41743)
[29] = molecular target: PRKG2 (human) (UniProt Q13237)
[30] = molecular target: PTK2B (human) (UniProt Q14289)
[31] = molecular target: RPS6KA3 KD1 KD2 (human) (UniProt P51812)
[32] = molecular target: RPS6KA6 KD1 KD2 (human) (UniProt Q9UK32)
[33] = molecular target: SRMS (human) (UniProt Q9H3Y6)
[34] = molecular target: SRPK1 (human) (UniProt Q96SB4)
[35] = molecular target: SRPK2 (human) (UniProt P78362)
[36] = molecular target: SRPK3 (human) (UniProt Q9UPE1)
[37] = molecular target: STK11 (human) (UniProt Q15831)
[38] = molecular target: STK39 (human) (UniProt Q9UEW8)
[39] = molecular target: STK4 (human) (UniProt Q13043)
[40] = molecular target: TXK (human) (UniProt P42681)
Sequence of TXK (human) (P42681 whole entry, looked up): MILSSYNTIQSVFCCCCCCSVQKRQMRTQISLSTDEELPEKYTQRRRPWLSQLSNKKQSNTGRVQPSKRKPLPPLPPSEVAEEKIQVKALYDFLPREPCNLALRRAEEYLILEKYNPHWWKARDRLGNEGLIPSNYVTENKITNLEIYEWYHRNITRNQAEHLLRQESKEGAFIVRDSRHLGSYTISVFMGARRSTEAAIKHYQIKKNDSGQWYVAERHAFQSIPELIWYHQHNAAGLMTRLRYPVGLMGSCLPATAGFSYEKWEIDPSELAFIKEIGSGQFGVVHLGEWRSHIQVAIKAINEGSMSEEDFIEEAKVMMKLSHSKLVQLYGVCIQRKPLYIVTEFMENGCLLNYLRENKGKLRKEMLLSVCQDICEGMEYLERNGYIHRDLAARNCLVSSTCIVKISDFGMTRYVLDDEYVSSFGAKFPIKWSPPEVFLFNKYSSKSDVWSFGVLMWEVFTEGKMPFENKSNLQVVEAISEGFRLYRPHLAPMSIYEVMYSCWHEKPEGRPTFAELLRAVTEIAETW

Sequence of MAP4K2 (human) (Q12851 whole entry, looked up): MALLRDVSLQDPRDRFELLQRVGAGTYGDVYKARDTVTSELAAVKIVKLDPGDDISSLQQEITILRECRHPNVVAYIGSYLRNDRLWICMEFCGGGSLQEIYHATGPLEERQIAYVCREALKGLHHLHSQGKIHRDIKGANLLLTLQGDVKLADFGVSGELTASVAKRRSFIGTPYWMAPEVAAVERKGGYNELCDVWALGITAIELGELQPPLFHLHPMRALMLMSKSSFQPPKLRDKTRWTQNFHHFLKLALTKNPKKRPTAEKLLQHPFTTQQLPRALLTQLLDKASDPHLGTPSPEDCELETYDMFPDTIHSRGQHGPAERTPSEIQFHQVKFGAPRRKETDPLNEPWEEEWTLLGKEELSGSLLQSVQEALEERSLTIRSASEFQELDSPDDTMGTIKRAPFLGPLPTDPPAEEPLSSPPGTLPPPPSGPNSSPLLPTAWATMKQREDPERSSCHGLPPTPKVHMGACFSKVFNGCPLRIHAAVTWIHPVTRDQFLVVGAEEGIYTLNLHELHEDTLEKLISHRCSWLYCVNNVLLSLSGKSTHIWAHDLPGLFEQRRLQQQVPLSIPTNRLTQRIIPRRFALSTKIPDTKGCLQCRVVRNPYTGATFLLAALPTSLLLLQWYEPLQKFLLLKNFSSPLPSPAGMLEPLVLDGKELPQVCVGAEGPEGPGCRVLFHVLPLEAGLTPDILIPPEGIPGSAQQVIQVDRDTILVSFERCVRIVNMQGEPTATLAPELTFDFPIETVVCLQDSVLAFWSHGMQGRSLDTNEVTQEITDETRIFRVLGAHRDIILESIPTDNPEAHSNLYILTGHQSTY
Sequence of SRPK2 (human) (P78362 whole entry, looked up): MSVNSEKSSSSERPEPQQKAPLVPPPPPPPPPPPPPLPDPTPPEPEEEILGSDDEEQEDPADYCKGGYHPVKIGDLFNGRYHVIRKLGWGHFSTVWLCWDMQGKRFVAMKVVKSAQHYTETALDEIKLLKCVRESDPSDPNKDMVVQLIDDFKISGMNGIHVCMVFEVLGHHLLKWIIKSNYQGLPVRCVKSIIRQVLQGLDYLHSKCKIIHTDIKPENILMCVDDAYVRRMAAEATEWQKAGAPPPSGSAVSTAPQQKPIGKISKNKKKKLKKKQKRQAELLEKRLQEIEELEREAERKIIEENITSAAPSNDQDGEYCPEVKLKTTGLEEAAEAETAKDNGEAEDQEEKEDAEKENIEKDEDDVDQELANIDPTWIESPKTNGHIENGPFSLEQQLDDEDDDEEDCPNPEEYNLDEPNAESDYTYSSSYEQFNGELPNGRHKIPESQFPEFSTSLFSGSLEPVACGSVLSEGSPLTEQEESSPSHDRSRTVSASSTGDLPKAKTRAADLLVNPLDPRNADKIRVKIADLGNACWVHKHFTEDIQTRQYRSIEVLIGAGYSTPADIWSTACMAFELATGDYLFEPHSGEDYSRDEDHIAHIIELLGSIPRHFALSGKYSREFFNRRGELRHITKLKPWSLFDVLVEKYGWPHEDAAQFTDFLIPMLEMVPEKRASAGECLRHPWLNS
Sequence of AKT1 (human) (P31749 whole entry, looked up): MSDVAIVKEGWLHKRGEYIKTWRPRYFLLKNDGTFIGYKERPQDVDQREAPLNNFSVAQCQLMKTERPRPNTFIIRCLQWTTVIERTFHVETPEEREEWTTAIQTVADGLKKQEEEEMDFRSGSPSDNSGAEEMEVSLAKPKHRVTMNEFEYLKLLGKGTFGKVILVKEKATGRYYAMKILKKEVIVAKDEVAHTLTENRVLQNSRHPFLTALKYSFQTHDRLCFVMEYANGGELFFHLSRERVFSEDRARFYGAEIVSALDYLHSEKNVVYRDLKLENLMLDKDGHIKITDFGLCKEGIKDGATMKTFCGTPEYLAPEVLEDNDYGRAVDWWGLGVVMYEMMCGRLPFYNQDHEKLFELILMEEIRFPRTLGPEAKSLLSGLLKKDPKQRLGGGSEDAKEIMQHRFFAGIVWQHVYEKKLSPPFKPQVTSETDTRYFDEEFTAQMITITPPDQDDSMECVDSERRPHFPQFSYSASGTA
Sequence of EPHA8 (human) (P29322 whole entry, looked up): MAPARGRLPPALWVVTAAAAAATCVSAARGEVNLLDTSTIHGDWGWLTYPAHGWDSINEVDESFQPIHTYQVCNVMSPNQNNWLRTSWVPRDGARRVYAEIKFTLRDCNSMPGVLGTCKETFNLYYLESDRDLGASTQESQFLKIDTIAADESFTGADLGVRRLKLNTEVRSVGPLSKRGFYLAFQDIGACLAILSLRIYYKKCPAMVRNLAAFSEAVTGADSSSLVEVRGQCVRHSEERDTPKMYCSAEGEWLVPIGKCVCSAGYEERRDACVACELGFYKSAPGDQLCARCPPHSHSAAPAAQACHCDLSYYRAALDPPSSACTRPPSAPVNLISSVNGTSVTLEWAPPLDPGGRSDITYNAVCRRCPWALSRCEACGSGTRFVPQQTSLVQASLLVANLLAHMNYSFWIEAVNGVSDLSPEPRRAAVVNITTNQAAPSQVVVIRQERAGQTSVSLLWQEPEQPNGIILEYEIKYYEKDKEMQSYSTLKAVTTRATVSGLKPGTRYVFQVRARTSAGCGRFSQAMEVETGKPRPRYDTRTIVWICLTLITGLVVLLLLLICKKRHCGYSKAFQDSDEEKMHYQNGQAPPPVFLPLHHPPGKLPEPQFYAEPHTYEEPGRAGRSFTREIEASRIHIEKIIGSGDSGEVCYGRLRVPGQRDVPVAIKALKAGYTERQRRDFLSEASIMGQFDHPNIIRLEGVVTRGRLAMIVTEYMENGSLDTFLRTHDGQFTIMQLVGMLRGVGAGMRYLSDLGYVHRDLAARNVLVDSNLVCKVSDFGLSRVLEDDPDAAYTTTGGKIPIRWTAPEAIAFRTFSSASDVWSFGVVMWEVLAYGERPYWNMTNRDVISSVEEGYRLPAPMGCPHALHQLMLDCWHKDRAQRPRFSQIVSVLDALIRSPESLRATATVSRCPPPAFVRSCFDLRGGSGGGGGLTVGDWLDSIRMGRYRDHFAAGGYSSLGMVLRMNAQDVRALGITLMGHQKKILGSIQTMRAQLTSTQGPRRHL
Sequence of MLTK (human) (Q9NYL2 whole entry, looked up): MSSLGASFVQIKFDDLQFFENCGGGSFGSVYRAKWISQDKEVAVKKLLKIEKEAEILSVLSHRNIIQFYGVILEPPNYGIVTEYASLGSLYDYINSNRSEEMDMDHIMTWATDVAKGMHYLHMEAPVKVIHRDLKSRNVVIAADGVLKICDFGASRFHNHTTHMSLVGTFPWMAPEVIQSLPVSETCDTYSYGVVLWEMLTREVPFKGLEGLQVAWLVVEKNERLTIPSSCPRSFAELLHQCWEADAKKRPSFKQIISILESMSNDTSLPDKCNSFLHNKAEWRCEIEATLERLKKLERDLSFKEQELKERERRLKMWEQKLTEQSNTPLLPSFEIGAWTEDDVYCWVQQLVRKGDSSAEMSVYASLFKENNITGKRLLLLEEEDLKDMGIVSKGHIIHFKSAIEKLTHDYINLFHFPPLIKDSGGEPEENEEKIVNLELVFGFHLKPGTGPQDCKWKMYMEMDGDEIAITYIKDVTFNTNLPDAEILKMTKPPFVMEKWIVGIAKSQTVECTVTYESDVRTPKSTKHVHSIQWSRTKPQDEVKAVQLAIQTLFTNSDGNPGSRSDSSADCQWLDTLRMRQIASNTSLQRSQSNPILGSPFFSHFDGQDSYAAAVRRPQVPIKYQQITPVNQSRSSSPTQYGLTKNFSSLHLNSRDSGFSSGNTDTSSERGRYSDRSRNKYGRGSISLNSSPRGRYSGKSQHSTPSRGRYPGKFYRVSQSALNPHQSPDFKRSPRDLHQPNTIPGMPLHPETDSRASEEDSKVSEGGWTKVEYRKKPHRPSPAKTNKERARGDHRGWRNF
Sequence of BTK (human) (Q06187 whole entry, looked up): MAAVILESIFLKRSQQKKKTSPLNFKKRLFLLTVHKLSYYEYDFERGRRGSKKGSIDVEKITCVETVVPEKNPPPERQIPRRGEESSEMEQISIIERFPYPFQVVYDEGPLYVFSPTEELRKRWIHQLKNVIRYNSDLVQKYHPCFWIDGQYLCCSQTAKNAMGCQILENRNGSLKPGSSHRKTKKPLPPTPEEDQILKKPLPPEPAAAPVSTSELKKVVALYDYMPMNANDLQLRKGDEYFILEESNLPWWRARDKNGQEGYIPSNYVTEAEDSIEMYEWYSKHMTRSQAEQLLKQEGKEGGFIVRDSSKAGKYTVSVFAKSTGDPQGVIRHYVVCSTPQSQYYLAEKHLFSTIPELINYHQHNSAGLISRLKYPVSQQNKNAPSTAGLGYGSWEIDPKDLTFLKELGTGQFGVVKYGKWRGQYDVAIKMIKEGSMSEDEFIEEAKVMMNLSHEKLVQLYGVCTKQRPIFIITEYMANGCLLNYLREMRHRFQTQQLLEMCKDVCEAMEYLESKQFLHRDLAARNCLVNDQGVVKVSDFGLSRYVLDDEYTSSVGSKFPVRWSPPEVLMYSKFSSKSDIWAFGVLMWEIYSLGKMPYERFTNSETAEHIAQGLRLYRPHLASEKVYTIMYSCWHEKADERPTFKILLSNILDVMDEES

SMILES | residual activity [1] [%] | residual activity [2] [%] | residual activity [3] [%] | residual activity [4] [%] | residual activity [5] [%] | residual activity [6] [%] | residual activity [7] [%] | residual activity [8] [%] | residual activity [9] [%] | residual activity [10] [%] | residual activity [11] [%] | residual activity [12] [%] | residual activity [13] [%] | residual activity [14] [%] | residual activity [15] [%] | residual activity [16] [%] | residual activity [17] [%] | residual activity [18] [%] | residual activity [19] [%] | residual activity [20] | further results
CCN(CC)C(=O)c1ccc(Nc2nc(OCC3CCCCC3)c3nc[nH]c3n2)cc1 | 92.6 | 98.8 | 37.1 | 97.5 | 62.4 | 55.8 | 82 | 52.9 | 72.6 | 95.6 | 90.6 | 86.7 | 92.1 | 63.2 | 116 | 94.1 | 63.1 | 92.4 | 2.21 | 78.2% and 89.7% | residual activity [21]: 59.7%; residual activity [22]: 91.4%; residual activity [23]: 84.9%; residual activity [24]: 32.3%; residual activity [25]: 51.5%; residual activity [26]: 95.6%; residual activity [27]: 94.5%; residual activity [28]: 97.2%; residual activity [29]: 80%; residual activity [30]: 48.7%; residual activity [31]: 17.6%; residual activity [32]: 46.2%; residual activity [33]: 84.7%; residual activity [34]: 91.7%; residual activity [35]: 87.8%; residual activity [36]: 68.1%; residual activity [37]: 85.2%; residual activity [38]: 91.5%; residual activity [39]: 46.3%; residual activity [40]: 46%
O=C(Nc1cccc(Nc2nccc(Nc3cccc(C(F)(F)F)c3)n2)c1)C1CC1 | 84.7 | 109 | 83.7 | 99.5 | 89.3 | 98.2 | 101 | 93.4 | 107 | 110 | 87.3 | 81 | 96.3 | 94.3 | 92.2 | 101 | 102 | 146 | 93.7 | 91.9% and 99.9% | residual activity [21]: 112%; residual activity [22]: 110%; residual activity [23]: 84.4%; residual activity [24]: 77.3%; residual activity [25]: 87.4%; residual activity [26]: 103%; residual activity [27]: 90.9%; residual activity [28]: 91.3%; residual activity [29]: 96.2%; residual activity [30]: 90.9%; residual activity [31]: 100%; residual activity [32]: 89.5%; residual activity [33]: 95.5%; residual activity [34]: 104%; residual activity [35]: 104%; residual activity [36]: 101%; residual activity [37]: 82.8%; residual activity [38]: 94.1%; residual activity [39]: 83.1%; residual activity [40]: 90.2%
Cc1ccc(NC2=CC(=O)c3sc(C)nc3C2=O)cc1 | 96.6 | 83.3 | 99.2 | 92.5 | 69.7 | 88.1 | 92 | 101 | 84.4 | 93.4 | 102 | 86.5 | 94.1 | 101 | 87.9 | 86.6 | 94.4 | 124 | 102 | 106% and 95.4% | residual activity [21]: 104%; residual activity [22]: 94%; residual activity [23]: 86.6%; residual activity [24]: 94%; residual activity [25]: 105%; residual activity [26]: 96.8%; residual activity [27]: 77%; residual activity [28]: 96.9%; residual activity [29]: 60.8%; residual activity [30]: 90.2%; residual activity [31]: 104%; residual activity [32]: 73.4%; residual activity [33]: 82.4%; residual activity [34]: 92.6%; residual activity [35]: 101%; residual activity [36]: 98.2%; residual activity [37]: 85.6%; residual activity [38]: 93.4%; residual activity [39]: 93.5%; residual activity [40]: 98.8%
CC(=O)c1ccc(N2CCOCC2)cc1O | 99 | 103 | 108 | 115 | 86.8 | 99.3 | 94.4 | 99.3 | 106 | 96.2 | 107 | 101 | 101 | 100 | 91.6 | 79.6 | 116 | 120 | 96.1 | 106% and 98.8% | residual activity [21]: 116%; residual activity [22]: 97.8%; residual activity [23]: 99.5%; residual activity [24]: 101%; residual activity [25]: 103%; residual activity [26]: 97.2%; residual activity [27]: 98.7%; residual activity [28]: 96.3%; residual activity [29]: 107%; residual activity [30]: 102%; residual activity [31]: 101%; residual activity [32]: 95.1%; residual activity [33]: 94.7%; residual activity [34]: 90.7%; residual activity [35]: 98.6%; residual activity [36]: 104%; residual activity [37]: 103%; residual activity [38]: 90.9%; residual activity [39]: 102%; residual activity [40]: 103%
c1ccc(-c2n[nH]c3c2oc2ccccc23)cc1 | 104 | 86.9 | 96.4 | 87.5 | 87.7 | 88.1 | 87.9 | 90.4 | 86.2 | 91.8 | 105 | 95.5 | 102 | 114 | 89.9 | 99.3 | 111 | 92.7 | 91.4 | 102% and 108% | residual activity [21]: 61.8%; residual activity [22]: 96.2%; residual activity [23]: 90.6%; residual activity [24]: 42.7%; residual activity [25]: 111%; residual activity [26]: 83.3%; residual activity [27]: 99.9%; residual activity [28]: 85.9%; residual activity [29]: 109%; residual activity [30]: 96.8%; residual activity [31]: 109%; residual activity [32]: 107%; residual activity [33]: 99.5%; residual activity [34]: 113%; residual activity [35]: 95%; residual activity [36]: 94.5%; residual activity [37]: 107%; residual activity [38]: 120%; residual activity [39]: 99.8%; residual activity [40]: 81.5%
